IC50 and pIC50 data for 9 compounds are collected here from ChEMBL document CHEMBL6109067, “Isolation, synthesis and structure-activity relationships of gallotannin derivatives as cathepsin C inhibitor” (Bioorg Med Chem Lett, 2025).

Assay [1] has as its target Dipeptidyl peptidase 1 (Homo sapiens, UniProt P53634). Nature of the assay: Inhibition of Cathepsin C (unknown origin).
For assay [2], the target named is Cathepsin S (Homo sapiens, UniProt P25774). Kind of assay: Inhibition of Cathepsin S (unknown origin).
In assay [3] the target is T1, Cathepsin K (Homo sapiens, UniProt P43235).
T1 sequence (P43235 whole entry): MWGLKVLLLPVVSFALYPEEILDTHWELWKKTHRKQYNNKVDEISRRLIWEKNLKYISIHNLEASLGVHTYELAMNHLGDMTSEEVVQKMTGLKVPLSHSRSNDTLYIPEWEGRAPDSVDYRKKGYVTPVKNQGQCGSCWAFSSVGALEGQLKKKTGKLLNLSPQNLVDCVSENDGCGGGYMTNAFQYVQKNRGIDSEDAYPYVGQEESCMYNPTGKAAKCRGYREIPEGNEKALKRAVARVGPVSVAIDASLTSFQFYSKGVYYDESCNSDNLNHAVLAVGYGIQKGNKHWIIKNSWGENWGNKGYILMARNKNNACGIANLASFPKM
Nature of the assay: Inhibition of Cathepsin K (unknown origin).

In assay [4] the target is Procathepsin L (Homo sapiens, UniProt P07711). Nature of the assay: Inhibition of Cathepsin L (unknown origin).

The structures appear in SMILES notation.

Sequence of Procathepsin L (P07711 whole entry): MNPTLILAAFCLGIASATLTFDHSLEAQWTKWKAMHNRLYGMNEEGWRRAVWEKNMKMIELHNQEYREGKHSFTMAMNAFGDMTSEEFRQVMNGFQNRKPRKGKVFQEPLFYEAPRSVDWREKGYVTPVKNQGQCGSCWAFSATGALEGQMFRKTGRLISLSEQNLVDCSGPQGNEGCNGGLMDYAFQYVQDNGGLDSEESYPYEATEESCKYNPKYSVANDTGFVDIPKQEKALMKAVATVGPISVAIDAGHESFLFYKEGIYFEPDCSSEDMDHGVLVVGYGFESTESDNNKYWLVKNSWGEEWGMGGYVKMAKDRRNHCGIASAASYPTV
Sequence of Dipeptidyl peptidase 1 (P53634 25-134 limits assumed): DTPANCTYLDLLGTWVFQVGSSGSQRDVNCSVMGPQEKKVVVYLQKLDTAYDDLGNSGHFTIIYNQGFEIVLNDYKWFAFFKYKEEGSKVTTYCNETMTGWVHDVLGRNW
Sequence of Dipeptidyl peptidase 1 (P53634 231-394 limits assumed): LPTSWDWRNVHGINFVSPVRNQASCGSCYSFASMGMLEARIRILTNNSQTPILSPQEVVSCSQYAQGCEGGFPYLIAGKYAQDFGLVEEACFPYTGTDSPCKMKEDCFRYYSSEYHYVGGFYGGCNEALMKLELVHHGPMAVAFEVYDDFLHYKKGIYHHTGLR
Sequence of Dipeptidyl peptidase 1 (P53634 395-463 limits assumed): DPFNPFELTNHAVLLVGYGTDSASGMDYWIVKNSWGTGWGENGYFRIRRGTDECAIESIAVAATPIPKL
Sequence of Cathepsin S (P25774 whole entry): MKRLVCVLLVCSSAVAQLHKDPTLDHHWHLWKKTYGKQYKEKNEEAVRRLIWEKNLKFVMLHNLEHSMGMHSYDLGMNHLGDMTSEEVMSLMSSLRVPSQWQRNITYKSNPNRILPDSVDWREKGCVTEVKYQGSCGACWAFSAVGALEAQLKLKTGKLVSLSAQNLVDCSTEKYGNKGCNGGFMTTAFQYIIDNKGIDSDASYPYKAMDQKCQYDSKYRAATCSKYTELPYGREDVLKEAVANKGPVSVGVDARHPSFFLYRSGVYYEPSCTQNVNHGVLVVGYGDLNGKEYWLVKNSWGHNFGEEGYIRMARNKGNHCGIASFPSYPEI

In the case of `O=C(OC[C@H]1O[C@H](OC(=O)c2cc(O)c(O)c(O)c2)[C@H](OC(=O)c2cc(O)c(O)c(O)c2)[C@@H](OC(=O)c2cc(O)c(O)c(O)c2)[C@@H]1OC(=O)c1cc(O)c(O)c(O)c1)c1cc(O)c(O)c(O)c1`, the IC50 (as a rule, the concentration that inhibits the measured activity by half) in assay [1] is 1.99 µM.
Still for that read-out and setting: the figure for `O=C(OC[C@H]1O[C@@H](OC(=O)c2cc(O)c(O)c(O)c2)[C@H](OC(=O)c2cc(O)c(O)c(O)c2)[C@@H](OC(=O)c2cc(O)c(O)c(O)c2)[C@H]1OC(=O)c1cc(O)c(O)c(O)c1)c1cc(O)c(O)c(O)c1` is 0.735 µM; for `O=C(OC[C@H]1O[C@H](OC(=O)c2cc(O)c(O)c(O)c2)[C@H](OC(=O)c2cc(O)c(O)c(O)c2)[C@@H](OC(=O)c2cc(O)c(O)c(O)c2)[C@H]1OC(=O)c1cc(O)c(O)c(O)c1)c1cc(O)c(O)c(O)c1` it is 2.52 µM.
For `O=C(OC[C@H]1O[C@@H](OC(=O)c2cc(O)c(O)c(O)c2)[C@H](OC(=O)c2cc(O)c(O)c(O)c2)[C@@H](OC(=O)c2cc(O)c(O)c(O)c2)[C@@H]1O)c1cc(O)c(O)c(O)c1`, the IC50 in assay [2], in assay [3] and in assay [4] was more than 50 µM each time.
For `COc1cc(C(=O)O[C@@H]2O[C@H](CO)[C@@H](O)[C@H](OC(=O)c3cc(OC)c(OC)c(OC)c3)[C@H]2OC(=O)c2cc(OC)c(OC)c(OC)c2)cc(OC)c1OC`, in assay [1], the IC50 was more than 10 µM and the pIC50 (commonly the negative decadic logarithm of the IC50, by convention in mol/L) is listed as less than 5.
Consider `O=C(OC[C@H]1O[C@@H](OC(=O)c2cc(O)c(O)c(O)c2)[C@H](OC(=O)c2cc(O)c(O)c(O)c2)[C@@H](OC(=O)c2cc(O)c(O)c(O)c2)[C@@H]1F)c1cc(O)c(O)c(O)c1`, for which the figures for the concentration for half-maximal inhibition (IC50) in assay [2], in assay [3] and in assay [4] were more than 50 µM, more than 50 µM and 7.23 µM, respectively.
With `O=C(N[C@H]1[C@@H](OC(=O)c2cc(O)c(O)c(O)c2)O[C@H](COC(=O)c2cc(O)c(O)c(O)c2)[C@@H](O)[C@@H]1OC(=O)c1cc(O)c(O)c(O)c1)c1cc(O)c(O)c(O)c1`, in assay [1], the IC50 is more than 10 µM and the pIC50 is less than 5.
Consider `CC(C)C[C@H](NC(=O)[C@H]1O[C@@H]1C(=O)O)C(=O)NCCCCN=C(N)N` [E-64], for which the half-inhibitory concentration (IC50) in assay [2] turned out to be 0.00358 µM; in assay [1], 4.45 µM; in assay [3], 0.00117 µM; in assay [4], 0.00749 µM.
In assay [1], `O=C(OC[C@H]1O[C@@H](OC(=O)c2cc(O)c(O)c(O)c2)[C@H](OC(=O)c2cc(O)c(O)c(O)c2)[C@@H](OC(=O)c2cc(O)c(O)c(O)c2)[C@@H]1OC(=O)c1cc(O)c(O)c(O)c1)c1cc(O)c(O)c(O)c1` [PENTAGALLOYL GLUCOSE] returned an IC50 of 0.695 µM. In other words, the sub-micromolar range.
